Assays:
[1] = system: T. b. brucei procyclic trypanosomes (Lab 110 EATRO strain); assay: In vitro antitrypanosomal activity, procyclic trypanosomes in T2 medium; type: cell-based, Trypanosoma brucei brucei; conditions: Trypanosoma brucei, 3-5 days
Description: The antitrypanosomal effects of HETA and other nucleosides were examined in the Lab 110 EATRO strain of T. b. brucei in culture.
Cells were cultured as described in Bacchi et al. Exp. Parasitol. 68, 392, 1989. Cells were then grown in the presence of the compounds for 3-5 days. Drugs were filtered, sterilized and added aseptically. Control cells achieved a maximum density of 1.5-3.5×10^7 /ml. Hemocytometer counts were made daily and the results were expressed as a percent of control growth. IC50 plots were obtained by graphing log (drug) vs. percent growth inhibition.
Trypanocidal Activity of MTA and MTR Analogs
against T. b. brucei procyclic trypanosomes in T2 medium.

[2] = system: T. b. brucei LAB 110 EATRO; assay: In vivo antitrypanosomal activity, LAB EATRO mouse infection model; conditions: 7 days, miniosmotic pump
Description: ^a Animals were treated with surgically implanted miniosmotic pumps
loaded as per manufacturers instructions with MTA, HETA or MFETA suspende

[3] = target: T1, Mouse Liver MTA Phosphorylase (Mus musculus, UniProt Q9CQ65); assay: Mouse liver MTA phosphorylase substrate/inhibitor assay; type: biochemical
T1 sequence (Q9CQ65 1-283): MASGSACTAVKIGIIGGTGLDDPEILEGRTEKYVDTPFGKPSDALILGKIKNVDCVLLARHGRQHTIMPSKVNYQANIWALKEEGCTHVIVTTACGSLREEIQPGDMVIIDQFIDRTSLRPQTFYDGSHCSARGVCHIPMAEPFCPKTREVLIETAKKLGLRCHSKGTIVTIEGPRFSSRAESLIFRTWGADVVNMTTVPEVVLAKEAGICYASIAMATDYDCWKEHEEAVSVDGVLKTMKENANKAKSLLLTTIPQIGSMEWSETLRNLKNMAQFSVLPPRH
Description: ^a MTA phosphorylase activity was assayed as described in Sufrin et

[4] = system: L5178Y cells (MTA phosphorylase-containing); assay: Growth inhibition of L5178Y cells; type: cell-based, mouse; conditions: Mus musculus, 48 h
Description: (§1) L1210, L5178Y and MOLT-4 cell lines were grown in RPMI 1640 and 10% Nu Serum (Collaborative Research Inc., Lexington, Mass.) and CCRF-CEM cells were grown in 10% Horse Serum (Gibco Laboratories, Grand Island, N.Y.) and maintained as previously described for suspension cultures by Pera et al. in Cancer Res. 46, 1148, 1986. Cell cultures (0.3×10^5 cells/ml) were treated with each compound at 0.1 to 1000 μM to determine the concentration that inhibited growth by 50% (IC50) at 48 hr for the L1210 and L5178Y cells and at 96 hr for the CCRF-CEM and MOLT-4 cells. The incubation times allowed approximately 4 cell doublings in each cell line. All compounds were freshly prepared prior to treatment by dissolving in DMSO and diluting in serum-free media. Cells were counted by electron particle counting (Model XF' Coulter Counter; Coulter Electronics, Hialeah, Fla.).
(§2) For each compound, the concentrations required to inhibit cell growth by 50% (IC50 values) are shown in Table 7 for two murine leukemic cell lines, L1210 and L5178Y [MTA phosphorylase-deficient and MTA phosphorylase-containing, respectively] and two human leukemic cell lines, CCRF-CEM and MOLT-4 [MTA phosphorylase-deficient and MTA phosphorylase-containing, respectively]. ETA, MFETA, HETA and PTA had lower IC50 values in the L5178Y cells than in the L1210 cells. […] This differential is consistent with the possibility that, in L5178Y cells, MFETA is cleaved by MTA phosphorylase to the growth inhibitory metabolite, 5-monofluoroethylthioribose-1-phosphate (MFETR-1-P).

[5] = system: CCRF-CEM cells (MTA phosphorylase-deficient); assay: Growth inhibition of CCRF-CEM cells; type: cell-based, human; conditions: Homo sapiens, 96 h
Description: as §1, §2

L5178Y leukemic cells = assay: Antitumor effects in L5178Y leukemic mice; type: in vivo, DBA/2N mice
Description: The antitumor effects of MFETA were evaluated in DBA/2N mice (Charles River) who received i.p. transplants of 10^6 L1210 leukemic cells or 10^6 L5178Y leukemic cells on day 0 according to protocols described previously by Bernacki et al., Cancer Res. 47, 799, 1987. The increase in life span (% ILS) of treated animals relative to untreated, tumor-bearing animals was used as the measure of their therapeutic effectiveness at specified dose regimens.
^a MFETA was administered i.p. on days 1, 2, 3, 4, 5 following i.p.
implantation of 10^6 tumor cells on day 0.
^b % ILS is the percentage of increase in life span.

Ebey (human melanoma) = assay: In vitro evaluation, Ebey; type: cell-based; conditions: medium B, 72 hours
Description: (§3) In vitro evaluations of the compound 5'-deoxy-5'-(monofluoroethylthio) adenosine (MFETA) were performed using the materials and conditions described in Tables 9 and 10.
(§4) ^(a) Basal medium = RPMI 1640 + 20 mM HEPES + 2 mM Lglutamine
(§5) B = 5% FCS + 5% NuSerum IV

MALME (human melanoma) = assay: In vitro evaluation, MALME; type: cell-based; conditions: medium B, 72 hours
Description: as §3, §4, §5

With `Nc1ncnc2c1ncn2[C@@H]1O[C@H](CSCCF)[C@@H](O)[C@H]1O` [MFETA, 5'-deoxy-5'-(monofluoroethylthio)adenosine] the IC50 [1] was 5 µM, the “% Cured” value ([2]; 10 mg/kg/day) was 0% and the “MSD (mean survival in days of animals dying of infection)” value (shortened to “MSD”) ([2]; 10 mg/kg/day) was 5.0 days. For the same compound, the “Number Cured Total” value ([2]; 10 mg/kg/day) was 0/5, the “% Cured” value ([2]; 25 mg/kg/day) was 40% and the “MSD” value ([2]; 25 mg/kg/day) was 11.6 days. For the same compound, the “Number Cured Total” value ([2]; 25 mg/kg/day) was 2/5, the “% Cured” value ([2]; 50 mg/kg/day) was 0% and the “MSD” value ([2]; 50 mg/kg/day) was 10.6 days. The “Number Cured Total” value ([2]; 50 mg/kg/day) was 0/5, the “% Cured” value ([2]; 100 mg/kg/day) was 40% and the “MSD” value ([2]; 100 mg/kg/day) was 12.0 days. The “Number Cured Total” value ([2]; 100 mg/kg/day) was 2/5, the Ki ([3]; mouse liver MTA phosphorylase, read-out: K1) was 3.1 µM and the “Substrate (% Control)” value ([3]; substrate activity relative to MTA) was 64 % Control. For the same compound, the IC50 [4] was 60 ± 35 µM, the IC50 [5] was 75 ± 20 µM and the “% ILS (percentage of increase in life span)” value (L5178Y leukemic cells; 10 mg/kg i.p. days 1-5) was 12%. For the same compound, the “Mean Death Weight” value (L5178Y leukemic cells; 10 mg/kg i.p. days 1-5) was 19.7 g, the “Survival Mean ± SD” value (L5178Y leukemic cells; 10 mg/kg i.p. days 1-5) was 9.0 ± 3 days and the “Survival Median” value (L5178Y leukemic cells; 10 mg/kg i.p. days 1-5) was 9 days. The “Survival Range” value (L5178Y leukemic cells; 10 mg/kg i.p. days 1-5) was 8 to 10 days, the “% ILS (percentage of increase in life span)” value (L5178Y leukemic cells; 50 mg/kg i.p. days 1-5) was 37% and the “Mean Death Weight” value (L5178Y leukemic cells; 50 mg/kg i.p. days 1-5) was 21.6 g. For the same compound, the “Survival Mean ± SD” value (L5178Y leukemic cells; 50 mg/kg i.p. days 1-5) was 10.0 ± 6 days, the “Survival Median” value (L5178Y leukemic cells; 50 mg/kg i.p. days 1-5) was 11 days and the “Survival Range” value (L5178Y leukemic cells; 50 mg/kg i.p. days 1-5) was 8 to 11 days. The “% ILS (percentage of increase in life span)” value (L5178Y leukemic cells; 100 mg/kg i.p. days 1-5) was 37%, the “Mean Death Weight” value (L5178Y leukemic cells; 100 mg/kg i.p. days 1-5) was 23.1 g and the “Survival Mean ± SD” value (L5178Y leukemic cells; 100 mg/kg i.p. days 1-5) was 10.5 ± 4 days. For the same compound, the “Survival Median” value (L5178Y leukemic cells; 100 mg/kg i.p. days 1-5) was 11 days, the “Survival Range” value (L5178Y leukemic cells; 100 mg/kg i.p. days 1-5) was 8 to 12 days and the “% ILS (percentage of increase in life span)” value (L5178Y leukemic cells; 200 mg/kg i.p. days 1-5) was 62%. For the same compound, the “Mean Death Weight” value (L5178Y leukemic cells; 200 mg/kg i.p. days 1-5) was 20.4 g, the “Survival Mean ± SD” value (L5178Y leukemic cells; 200 mg/kg i.p. days 1-5) was 12.4 ± 9 days and the “Survival Median” value (L5178Y leukemic cells; 200 mg/kg i.p. days 1-5) was 13 days. For the same compound, the “Survival Range” value (L5178Y leukemic cells; 200 mg/kg i.p. days 1-5) was 9 to 14 days, the “% ILS (percentage of increase in life span)” value (L5178Y leukemic cells; 300 mg/kg i.p. days 1-5) was -75% and the “Mean Death Weight” value (L5178Y leukemic cells; 300 mg/kg i.p. days 1-5) was 18.4 g. For the same compound, the “Survival Mean ± SD” value (L5178Y leukemic cells; 300 mg/kg i.p. days 1-5) was 2.6 ± 4 days, the “Survival Median” value (L5178Y leukemic cells; 300 mg/kg i.p. days 1-5) was 2 days and the “Survival Range” value (L5178Y leukemic cells; 300 mg/kg i.p. days 1-5) was 2 to 4 days. For the same compound, the IC50 (Ebey (human melanoma)) was 442 ± 13 µM and the IC50 (MALME (human melanoma)) was 364 ± 13 µM.
